{
  "source": "patent US8680052B1",
  "about": "“Methods of treating, reducing the incidence of, and/or preventing ischemic events” (The Medicines Company, priority 2013, dated 2014)",
  "system": "patients undergoing percutaneous coronary intervention (PCI)",
  "details": "for Mortality/Q-wave MI/IDR / Mortality/Q-wave MI/Stent thrombosis: exploratory; for Angiographic complications (site reported): Abrupt vessel closure / Angiographic complications (site reported): Acute stent thrombosis / Angiographic complications (site reported): Need for urgent CABG / Angiographic complications (site reported): New thrombus or suspected thrombus / Angiographic complications (site reported): Threatened abrupt closure / Angiographic complications (site reported): Unsuccessful procedure: index PCI",
  "key": {"[1]": {"details": "48-hour, MITT, cangrelor vs comparator arm"}, "[2]": {"details": "48-hour, MITT, cangrelor vs comparator arm, listed as cangrelor"}, "[3]": {"details": "48-hour, Safety population, cangrelor vs comparator arm"}},
  "note": "Like-named read-outs stand apart in the source and are kept apart here.",
  "method": "The diagnosis of non-ST-segment elevation myocardial infarction required troponin I or T greater than the upper limit of normal within 24 hours of randomization (or if troponin results were unavailable at that time, creatine kinase-myocardial band isoenzyme [CK-MB] greater than the upper limit of normal). The diagnosis of unstable angina required ischemic chest discomfort occurring at rest and lasting ≧10 minutes within the 24 hours prior to randomization and dynamic electrocardiographic changes; age ≧65 years and/or diabetes mellitus were also required.\nThe primary efficacy endpoint was the composite of mortality, myocardial infarction, or ischemia-driven revascularization at 48 hours. The primary analysis was performed on a modified intent-to-treat population. Confirmatory analyses were performed on an intent-to-treat population. Secondary endpoints included the individual rates of mortality, myocardial infarction, new Q-wave myocardial infarction, ischemia-driven revascularization, abrupt vessel closure, or stroke at 48 hours. Mortality at 30 days and 1 year was also recorded. The clinical events committee adjudicated myocardial infarction, Q-wave myocardial infarction, ischemia-driven revascularization, stent thromboses, and stroke (ischemic or hemorrhagic). The definition of stent thrombosis was similar to the Academic Research Consortium definition of definite stent thrombosis. After review of the prespecified analyses, two exploratory endpoints less reliant on periprocedural biomarker ascertainment were examined. The exploratory endpoints, which were composed of prespecified and adjudicated endpoints, were the composite of mortality, Q-wave myocardial infarction, or ischemia-driven revascularization and the composite of mortality, Q-wave myocardial infarction, or stent thrombosis. Bleeding and adverse events through 48 hours were compared.\nAll efficacy analyses were performed on the modified intent-to-treat population, defined as all randomized patients who received at least one dose of study drug and underwent the index PCI. All safety-related analyses were performed on the safety population, which included all patients who received at least one dose of assigned study drug. Patients in the safety analyses were assigned to a treatment arm based on treatment actually received, not as randomized. Intent-to-treat analyses are also presented for full disclosure of results. All statistical tests were two-tailed using a level of significance of 0.05. […] Logistic regression was also used to analyze the majority of the remaining secondary endpoints.",
  "data": [
    {"smiles": "CSCCNc1nc(SCCC(F)(F)F)nc2c1ncn2[C@@H]1O[C@H](COP(=O)(O)OP(=O)(O)C(Cl)(Cl)P(=O)(O)O)[C@@H](O)[C@H]1O", "note": "[Cangrelor, cangrelor]", "values": [
      {"measurement": "Mortality/Q-wave MI/IDR", "setting": "48-hour, ITT", "value": "25 (0.9) no. (%)"},
      {"measurement": "Mortality/Q-wave MI/Stent thrombosis", "setting": "48-hour, ITT", "value": "15 (0.6) no. (%)"},
      {"measurement": "All-cause mortality", "setting": "48-hour, MITT", "value": "6 (0.2) no. (%)"},
      {"measurement": "IDR", "setting": "48-hour, MITT", "value": "19 (0.7) no. (%)"},
      {"measurement": "MI", "setting": "48-hour, MITT", "value": "177 (6.7) no. (%)"},
      {"measurement": "Mortality/MI/IDR (primary endpoint)", "setting": "48-hour, MITT", "value": "185 (7.0) no. (%)"},
      {"measurement": "Q-wave MI", "setting": "48-hour, MITT", "value": "4 (0.2) no. (%)"},
      {"measurement": "Stent thrombosis", "setting": "48-hour, MITT", "value": "5 (0.2) no. (%)"},
      {"measurement": "Stroke", "setting": "48-hour, MITT", "value": "7 (0.3) no. (%)"},
      {"measurement": "OR (95% CI): All-cause mortality", "setting": "[1]", "value": "0.330 (0.131, 0.833)"},
      {"measurement": "OR (95% CI): IDR", "setting": "[1]", "value": "0.786 (0.430, 1.439)"},
      {"measurement": "OR (95% CI): MI", "setting": "[1]", "value": "0.917 (0.742, 1.133)"},
      {"measurement": "OR (95% CI): Mortality/MI/IDR (primary endpoint)", "setting": "[1]", "value": "0.867 (0.706, 1.065)"},
      {"measurement": "OR (95% CI): Mortality/Q-wave MI/IDR", "setting": "[1]", "value": "0.554 (0.332, 0.926)"},
      {"measurement": "OR (95% CI): Mortality/Q-wave MI/Stent thrombosis", "setting": "[1]", "value": "0.377 (0.199, 0.717)"},
      {"measurement": "OR (95% CI): Q-wave MI", "setting": "[1]", "value": "0.497 (0.149, 1.652)"},
      {"measurement": "OR (95% CI): Stent thrombosis", "setting": "[1]", "value": "0.310 (0.113, 0.847)"},
      {"measurement": "OR (95% CI): Stroke", "setting": "[1]", "value": "1.394 (0.442, 4.398)"},
      {"measurement": "OR (95% CI): All-cause mortality", "setting": "[2]", "value": 0.33},
      {"measurement": "OR (95% CI): Mortality/MI/IDR (primary endpoint)", "setting": "[2]", "value": 0.87},
      {"measurement": "OR (95% CI): Stent thrombosis", "setting": "[2]", "value": 0.31},
      {"measurement": "Mortality/Q-wave MI/IDR", "setting": "48-hour, MITT", "value": "23 (0.9) no. (%)"},
      {"measurement": "Mortality/Q-wave MI/Stent thrombosis", "setting": "48-hour, MITT", "value": "13 (0.5) no. (%)"},
      {"measurement": "OR (95% CI): All-cause mortality", "setting": "[3]", "value": "0.385 (0.161, 0.924)"},
      {"measurement": "OR (95% CI): IDR", "setting": "[3]", "value": "0.754 (0.414, 1.373)"},
      {"measurement": "OR (95% CI): MI", "setting": "[3]", "value": "0.901 (0.729, 1.113)"},
      {"measurement": "OR (95% CI): Mortality/MI/IDR", "setting": "[3]", "value": "0.858 (0.699, 1.053)"},
      {"measurement": "OR (95% CI): Mortality/Q-wave MI/IDR", "setting": "[3]", "value": "0.564 (0.341, 0.935)"},
      {"measurement": "OR (95% CI): Mortality/Q-wave MI/Stent thrombosis", "setting": "[3]", "value": "0.395 (0.212, 0.735)"},
      {"measurement": "OR (95% CI): Q-wave MI", "setting": "[3]", "value": "0.441 (0.136, 1.435)"},
      {"measurement": "OR (95% CI): Stent thrombosis", "setting": "[3]", "value": "0.310 (0.113, 0.846)"},
      {"measurement": "OR (95% CI): Stroke", "setting": "[3]", "value": "1.394 (0.442, 4.396)"},
      {"measurement": "Mortality/Q-wave MI/IDR", "setting": "48-hour, Safety population", "value": "24 (0.9) no. (%)"},
      {"measurement": "Mortality/Q-wave MI/Stent thrombosis", "setting": "48-hour, Safety population", "value": "14 (0.5) no. (%)"},
      {"measurement": "All-cause mortality", "setting": "48-hour, safety population", "value": "7 (0.3) no. (%)"},
      {"measurement": "IDR", "setting": "48-hour, safety population", "value": "19 (0.7) no. (%)"},
      {"measurement": "MI", "setting": "48-hour, safety population", "value": "176 (6.6) no. (%)"},
      {"measurement": "Mortality/MI/IDR", "setting": "48-hour, safety population", "value": "185 (7.0) no. (%)"},
      {"measurement": "Q-wave MI", "setting": "48-hour, safety population", "value": "4 (0.2) no. (%)"},
      {"measurement": "Stent thrombosis", "setting": "48-hour, safety population", "value": "5 (0.2) no. (%)"},
      {"measurement": "Stroke", "setting": "48-hour, safety population", "value": "7 (0.3) no. (%)"},
      {"measurement": "Rates of stent thrombosis", "setting": "48 hours", "value": 0.2, "unit": "%"},
      {"measurement": "rate of mortality at 48 hours", "setting": "48 hours", "value": 0.2, "unit": "%"},
      {"measurement": "primary endpoint (mortality, myocardial infarction, or ischemia-driven revascularization), patients with event", "setting": "48 hours, MITT", "value": 7.0, "unit": "%"},
      {"measurement": "Angiographic complications (site reported): Abrupt vessel closure", "setting": "ITT", "value": "13 (0.5)"},
      {"measurement": "Angiographic complications (site reported): Acute stent thrombosis", "setting": "ITT", "value": "1 (0.0)"},
      {"measurement": "Angiographic complications (site reported): Need for urgent CABG", "setting": "ITT", "value": "5 (0.2)"},
      {"measurement": "Angiographic complications (site reported): New thrombus or suspected thrombus", "setting": "ITT", "value": "14 (0.5)"},
      {"measurement": "Angiographic complications (site reported): Threatened abrupt closure", "setting": "ITT", "value": "10 (0.4)"},
      {"measurement": "Angiographic complications (site reported): Unsuccessful procedure", "setting": "ITT", "value": "84 (3.1)"},
      {"measurement": "Angiographic complications (site reported): Abrupt vessel closure", "setting": "MITT", "value": "13 (0.5)"},
      {"measurement": "Angiographic complications (site reported): Acute stent thrombosis", "setting": "MITT", "value": "1 (0.0)"},
      {"measurement": "Angiographic complications (site reported): Need for urgent CABG", "setting": "MITT", "value": "5 (0.2)"},
      {"measurement": "Angiographic complications (site reported): New thrombus or suspected thrombus", "setting": "MITT", "value": "14 (0.5)"},
      {"measurement": "Angiographic complications (site reported): Threatened abrupt closure", "setting": "MITT", "value": "10 (0.4)"},
      {"measurement": "Angiographic complications (site reported): Unsuccessful procedure", "setting": "MITT", "value": "81 (3.1)"},
      {"measurement": "Angiographic complications (site reported): Abrupt vessel closure", "setting": "Safety population", "value": "13 (0.5)"},
      {"measurement": "Angiographic complications (site reported): Acute stent thrombosis", "setting": "Safety population", "value": "1 (0.0)"},
      {"measurement": "Angiographic complications (site reported): Need for urgent CABG", "setting": "Safety population", "value": "5 (0.2)"},
      {"measurement": "Angiographic complications (site reported): New thrombus or suspected thrombus", "setting": "Safety population", "value": "14 (0.5)"},
      {"measurement": "Angiographic complications (site reported): Threatened abrupt closure", "setting": "Safety population", "value": "10 (0.4)"},
      {"measurement": "Angiographic complications (site reported): Unsuccessful procedure", "setting": "Safety population", "value": "81 (3.1)"},
      {"measurement": "primary efficacy endpoint", "setting": "subgroup of 1659 patients without baseline troponin elevation", "value": 4.6, "unit": "%"},
      {"measurement": "OR, primary efficacy endpoint", "setting": "subgroup of 1659 patients without baseline troponin elevation, cangrelor vs placebo", "value": 0.62}
    ]}
  ]
}
